One may read the IC50 as the concentration needed to halve the response being measured.

From ChEMBL document CHEMBL4334475, “Aphidicolin Chemistry of the Deep-Sea-Derived Fungus Botryotinia fuckeliana MCCC 3A00494” (J Nat Prod, 2019) come the findings set out here.

The source made the active and inactive calls. The calls are words filed in the database; no cut-off is given here.

For experiment [1], the system named is HL-60. The experiment in a line: Antiproliferative activity against human HL60 cells assessed as reduction in cell viability after 48 hrs by MTT assay. The class given is functional, cell-based. To be noted: HL-60, 48 h. A general note: Formazan colour is commonly taken as a measure of viable cells.
Experiment [2] deals with T-24. The experiment in a line: Induction of DNA damage in human T24 cells assessed as increase in gammaH2AX expression at 11 to 22 uM by Western blot analysis. The class given is functional, cell-based. On the technique in general: Immunoblotting shows a protein as a band on a membrane.
In experiment [3] the test system is T-24. The experiment in a line: Antiproliferative activity against human T24 cells assessed as reduction in cell viability after 48 hrs by MTT assay. The class given is functional, cell-based. To be noted: T-24, 48 h.
Experiment [4] has as its system T-24. The experiment in a line: Induction of apoptosis in human T24 cells assessed as increase in PARP cleavage at 11 to 22 uM by Western blot analysis. The class given is functional, cell-based.
Experiment [5] has as its system HL-60. Briefly: Induction of DNA damage in human HL60 cells assessed as increase in gammaH2AX expression at 11 to 22 uM by Western blot analysis. The class given is functional, cell-based.
In experiment [6] the test system is HL-60. The experiment in a line: Induction of apoptosis in human HL60 cells assessed as increase in PARP cleavage at 11 to 22 uM by Western blot analysis. The class given is functional, cell-based.
For experiment [7], the system named is HL-60. Briefly: Potency index, ratio of aphidicolin IC50 to compound IC50 for antiproliferative activity against human HL60 cells. The class given is functional.

Take `C[C@@]1(CO)[C@H](O)CC[C@@]2(C)[C@H]1C(=O)C[C@H]1C[C@@H]3C[C@@]12CC[C@]3(O)CO`: the 50% inhibitory concentration (IC50) in the experiment on HL-60 [1] is 6.1 µM; with T-24 [3] it was 2.5 µM. Also, the result in the experiment with T-24 [2], in the experiment with T-24 [4], with HL-60 [5] and in the experiment on HL-60 [6] was Active. Moreover, the “Ratio IC50” value in the experiment with HL-60 [7] worked out at 4.
Turning to `C[C@@]1(CO)[C@H](O)CC[C@@]2(C)[C@H]1CC[C@H]1C[C@@H]3C[C@@]12CC[C@]3(O)CO` [APHIDICOLIN], in the experiment on HL-60 [1], the concentration for half-maximal inhibition (IC50) was 24.4 µM.
